Data as given in article PMC6720883, “In Vitro Inhibitory Effects of APINACA on Human Major Cytochrome P450, UDP-Glucuronosyltransferase Enzymes, and Drug Transporters” (Molecules, 2019).
Where two headings read alike, the source gives them in different places.

What was measured:
CYP2D6 = CYP2D6 (Homo sapiens, UniProt P10635); test: Inhibition of CYP2D6-mediated bufuralol 1′-hydroxylase in ultrapooled human liver microsomes; assay type: in vitro ADME
Description: The inhibitory potentials (IC50 values) of APINACA and typical CYP inhibitors on CYP 1A2, 2A6, 2C8, 2C9, 2C19, 2D6, and 3A4 activities in pooled human liver microsomes were evaluated following our previous method using a cocktail of CYP substrates, followed by LC–MS/MS [43]. […] After 3 min of preincubation at 37 °C, the reaction mixtures were incubated for 15 min at 37 °C with the addition of NADPH in a shaking water bath. The reaction was stopped by adding 100 μL of ice cold methanol containing internal standards (d9-1′-hydroxybufuralol for 1′-hydroxybufuralol, 4′-hydroxydiclofenac, 7-hydroxycoumarin, 1′-hydroxymidazolam, and 4′-hydroxymephenytoin; ^13C2, ^15N-acetaminophen for acetaminophen and N-desethylamodiaquine). The incubation mixtures were centrifuged at 13,000× g for 8 min at 4 °C, and 50 μL of each supernatant was diluted with 50 μL of water. Aliquots (5 μL) of the diluted supernatants were analyzed by LC–MS/MS. All assays were performed in triplicate, and the average values were used for subsequent calculations.
To measure the time-dependent inhibition, human liver microsomes were preincubated with the various concentrations of APINACA (final concentrations of 0.1−100 μM) and NADPH for 30 min at 37 °C. Next, the reaction mixtures were incubated with a seven-CYP probe substrate cocktail or bupropion for 15 min at 37 °C. […]

OATP1B1 = target: T1, OATP1B1 (Homo sapiens, UniProt Q9Y6L6); test: Uptake of [3-H]estrone-3-sulfate in HEK293-OATP1B1 cells; assay type: in vitro ADME
T1 construct: host or cells: HEK293 (transient overexpression)
T1 sequence (Q9Y6L6 1-691): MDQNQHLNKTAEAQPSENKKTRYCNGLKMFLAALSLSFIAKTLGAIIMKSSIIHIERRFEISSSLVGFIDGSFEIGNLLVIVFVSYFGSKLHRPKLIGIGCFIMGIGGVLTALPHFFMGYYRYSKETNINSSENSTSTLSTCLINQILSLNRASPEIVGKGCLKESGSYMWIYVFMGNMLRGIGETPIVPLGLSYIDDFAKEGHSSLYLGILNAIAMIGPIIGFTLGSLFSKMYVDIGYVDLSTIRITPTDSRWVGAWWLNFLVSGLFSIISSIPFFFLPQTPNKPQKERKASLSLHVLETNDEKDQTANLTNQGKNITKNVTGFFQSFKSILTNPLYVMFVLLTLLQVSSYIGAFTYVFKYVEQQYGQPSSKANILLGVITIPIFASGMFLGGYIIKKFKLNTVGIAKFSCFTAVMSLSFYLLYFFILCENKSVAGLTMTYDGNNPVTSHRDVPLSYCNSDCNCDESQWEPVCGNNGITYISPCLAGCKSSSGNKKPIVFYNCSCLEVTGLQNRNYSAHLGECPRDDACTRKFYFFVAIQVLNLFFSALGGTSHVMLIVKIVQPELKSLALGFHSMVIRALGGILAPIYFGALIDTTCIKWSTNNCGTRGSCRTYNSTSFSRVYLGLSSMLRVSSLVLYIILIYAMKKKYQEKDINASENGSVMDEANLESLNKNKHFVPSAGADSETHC
Description: To examine the effects of APINACA and typical inhibitors on transporter activity, the uptake of a probe substrate into HEK293 cells overexpressing the respective solute carrier transporters was measured in the presence of APINACA (final concentrations of 0–250 μM) or typical inhibitors for 5 min. The concentrations and probe substrates were selected as follows: 0.1 μM [3-H]MPP^+ (for OCT1 and OCT2), 0.1 μM [3-H]PAH (for OAT1), 0.1 μM [3-H]ES (for OAT3 and OATP1B1), and 0.1 μM [3-H]EG (for OATP1B3).
(§1) 12.5 (Systat Software, Inc.; San Jose, CA, USA). […] 1.1 (Systat Software, Inc.).

UGT1A6 = UGT1A6 (Homo sapiens, UniProt P19224); test: Inhibition of UGT1A6-catalyzed N-acetylserotonin glucuronidation in human liver microsomes
Description: The inhibitory effect of APINACA and typical UGT inhibitors on UGT1A1, UGT1A3, UGT1A4, UGT1A6, UGT1A9, and UGT2B7 were evaluated following our previous method by LC–MS/MS after incubation of ultrapooled human liver microsomes with a cocktail of UGT substrates. […] The reactions were initiated by adding UDPGA, and the incubation continued for 60 min at 37 °C in a shaking water bath. The reactions were terminated by adding 50 μL of ice-cold acetonitrile containing internal standards (propofol glucuronide for chenodeoxycholic acid 24-acyl-β-glucuronide and mycophenolic acid glucuronide; and meloxicam for SN-38 glucuronide, trifluoperazine glucuronide, N-acetylserotonin β-D-glucuronide, and naloxone 3-β-D-glucuronide). The incubation mixtures were centrifuged at 13,000× g for 8 min at 4 °C. Next, 50 μL of each supernatant of A and B set was mixed, and aliquots (5 μL) were analyzed by LC–MS/MS. All assays were performed in triplicate, and the average values were used in calculations.
To measure the time-dependent inhibition, human liver microsomes were preincubated with the various concentrations of APINACA (final concentrations of 0.1–100 μM) and UDPGA for 30 min at 37 °C. Next, the reaction mixtures were incubated with UGT probe substrate cocktail sets for 60 min at 37 °C. The control reaction was performed by adding methanol instead of the test compounds.
1.1 (Systat Software, Inc.).

UGT1A9 = target: T2, UGT1A9 (Homo sapiens, UniProt O60656); test: Inhibition of UGT1A9-catalyzed mycophenolic acid glucuronidation in human liver microsomes; assay type: in vitro ADME; set-up: […]; tissue Corning Life Sciences; conditions: IC50 UGT1A9 mycophenolic acid glucuronidation, pooled human liver microsomes
T2 sequence (O60656 26-530): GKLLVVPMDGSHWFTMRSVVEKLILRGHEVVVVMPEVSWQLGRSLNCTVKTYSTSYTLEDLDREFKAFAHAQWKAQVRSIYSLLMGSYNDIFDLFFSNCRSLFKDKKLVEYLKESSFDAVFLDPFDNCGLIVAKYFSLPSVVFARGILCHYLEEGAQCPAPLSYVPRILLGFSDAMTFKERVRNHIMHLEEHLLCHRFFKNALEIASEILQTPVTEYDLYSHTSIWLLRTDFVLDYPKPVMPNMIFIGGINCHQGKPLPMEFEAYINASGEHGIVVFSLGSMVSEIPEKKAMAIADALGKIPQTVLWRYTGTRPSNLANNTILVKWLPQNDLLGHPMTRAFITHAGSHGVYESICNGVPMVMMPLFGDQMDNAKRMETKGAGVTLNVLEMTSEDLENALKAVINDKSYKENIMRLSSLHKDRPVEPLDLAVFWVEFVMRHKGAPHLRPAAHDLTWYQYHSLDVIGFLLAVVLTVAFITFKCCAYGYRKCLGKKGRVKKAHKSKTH
Text: as §1

UGT1A6, sequence (P19224 27-532): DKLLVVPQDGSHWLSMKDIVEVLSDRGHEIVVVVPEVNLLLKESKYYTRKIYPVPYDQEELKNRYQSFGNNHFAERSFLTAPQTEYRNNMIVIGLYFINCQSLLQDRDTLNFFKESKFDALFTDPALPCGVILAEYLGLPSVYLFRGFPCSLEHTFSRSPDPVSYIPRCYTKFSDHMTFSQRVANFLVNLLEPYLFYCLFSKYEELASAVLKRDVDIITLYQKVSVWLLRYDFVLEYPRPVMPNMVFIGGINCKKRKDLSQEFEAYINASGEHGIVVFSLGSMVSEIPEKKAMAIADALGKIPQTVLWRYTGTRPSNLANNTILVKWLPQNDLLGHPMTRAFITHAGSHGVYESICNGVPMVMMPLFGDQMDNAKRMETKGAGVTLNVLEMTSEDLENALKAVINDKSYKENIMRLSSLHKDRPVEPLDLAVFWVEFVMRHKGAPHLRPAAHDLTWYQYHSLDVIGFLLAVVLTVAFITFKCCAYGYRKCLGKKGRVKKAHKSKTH
CYP2D6, sequence (P10635 whole entry): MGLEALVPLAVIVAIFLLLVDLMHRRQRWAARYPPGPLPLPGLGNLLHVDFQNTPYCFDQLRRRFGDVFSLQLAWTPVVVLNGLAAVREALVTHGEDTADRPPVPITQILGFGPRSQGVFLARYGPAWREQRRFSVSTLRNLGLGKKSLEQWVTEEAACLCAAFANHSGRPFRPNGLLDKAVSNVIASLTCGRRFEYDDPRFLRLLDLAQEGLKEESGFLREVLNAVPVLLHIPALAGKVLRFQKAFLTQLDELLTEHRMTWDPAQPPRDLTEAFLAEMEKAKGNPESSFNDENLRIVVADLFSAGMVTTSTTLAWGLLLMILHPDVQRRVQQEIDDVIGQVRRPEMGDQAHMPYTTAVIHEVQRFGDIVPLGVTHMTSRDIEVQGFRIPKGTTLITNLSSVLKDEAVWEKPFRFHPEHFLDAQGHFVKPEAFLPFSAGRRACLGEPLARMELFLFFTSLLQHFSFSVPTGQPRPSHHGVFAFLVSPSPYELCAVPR

SMILES: CCCCCn1nc(C(=O)NC23CC4CC(CC(C4)C2)C3)c2ccccc21 [APINACA, N-(1-adamantyl)-1-pentyl-1H-indazole-3-carboxamide]
- IC50 (CYP2D6): > 100 µM
- IC50 (CYP2D6; read-out: IC50 (μM) With Preincubation, CYP2D6 bufuralol 1′-hydroxylase, ultrapooled human liver microsomes, 30-min preincubation with NADPH): > 100 µM
- IC50 (OATP1B1): > 250 µM
- IC50 (UGT1A6): > 100 µM
- IC50 (UGT1A6; read-out: IC50 UGT1A6 N-acetylserotonin glucuronidation, with 30-min preincubation, pooled human liver microsomes, 30-min preincubation with UDPGA (○)): > 100 µM
- IC50 (UGT1A9; with 30-min preincubation, 30-min preincubation with UDPGA (○)): 30.7 µM
- IC50 (UGT1A9; without preincubation, 0.2 µM mycophenolic acid): 32.7 µM
